Reference: patent US8309579B2, “N-hydroxyamide derivatives and use thereof” (Merck Serono SA, priority 2005, dated 2012)

Columns and labels:
[1] = molecular target: T1, collagenase (MMP-1) (Homo sapiens, UniProt P03956); assay: MMP-1 enzyme inhibition assay (coumarin-labelled peptide substrate); assay type: biochemical
T1 sequence (P03956 100-469): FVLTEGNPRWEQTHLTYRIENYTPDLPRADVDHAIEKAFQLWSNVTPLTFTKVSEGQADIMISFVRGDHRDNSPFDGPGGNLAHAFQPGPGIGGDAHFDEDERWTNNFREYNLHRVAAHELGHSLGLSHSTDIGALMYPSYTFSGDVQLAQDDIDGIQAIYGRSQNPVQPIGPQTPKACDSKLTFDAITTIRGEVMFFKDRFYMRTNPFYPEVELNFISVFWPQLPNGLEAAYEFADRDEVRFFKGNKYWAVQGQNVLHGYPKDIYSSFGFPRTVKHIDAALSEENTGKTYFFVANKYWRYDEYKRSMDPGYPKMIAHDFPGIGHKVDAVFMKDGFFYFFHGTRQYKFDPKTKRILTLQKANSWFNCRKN
Experimental: (§1) Stock solutions were made up as follows: Assay Butter: 100 mM Tris-HCl pH 7.6 containing 100 mM NaCl, 10 mM CaCl2, and 0.05% Brij 35.
(§2) Substrate: 0.4 mM McaPLGLDpaAR (from Bachem) (0.437 mg/ml) stock solution in 100% DMSO (stored at −20° C.). Dilute to 8 μM in assay butter.
(§3) Test Compounds were prepared initially as 10 mM compound solution in 100% DMSO, diluted to 1 mM in 100% DMSO, then serially diluted 3-fold in 100% DMSO across columns 1-10 of a 96-well microtitre plate Assay concentration range, 100 μM (column 1) to 5.1 nM (column 10).
(§4) The assay was performed in a total volume of 100 μL per well in 96-well microtitre plates. Activated enzyme (20 μL) was added to the wells followed by 20 μL of assay butter. Appropriate concentrations of test compounds dissolved in 10 μL of DMSO were then added followed by 50 μL of McaPLGLDpaAR (8 μM, prepared by dilution of DMSO stock in assay butter). For each assay ten concentrations of test compound were examined in duplicate. Control wells lack either enzyme or test compound. The reactions were incubated at 37° C. for 2 hours. The fluorescence at 405 nm was measured immediately with an SLT Fluostar fluorometer (SL T Labinstruments GmbH, Grödig, Austria) using 320 nm excitation, without stopping the reaction.
(§5) The effect of the test compound was determined from the dose response curve generated by the 10 duplicate concentrations of inhibitor. […]

[2] = molecular target: T2, gelatinase A (MMP-2) (Homo sapiens, UniProt P08253); assay: MMP-2 enzyme inhibition assay (coumarin-labelled peptide substrate); assay type: biochemical
T2 sequence (P08253 110-660): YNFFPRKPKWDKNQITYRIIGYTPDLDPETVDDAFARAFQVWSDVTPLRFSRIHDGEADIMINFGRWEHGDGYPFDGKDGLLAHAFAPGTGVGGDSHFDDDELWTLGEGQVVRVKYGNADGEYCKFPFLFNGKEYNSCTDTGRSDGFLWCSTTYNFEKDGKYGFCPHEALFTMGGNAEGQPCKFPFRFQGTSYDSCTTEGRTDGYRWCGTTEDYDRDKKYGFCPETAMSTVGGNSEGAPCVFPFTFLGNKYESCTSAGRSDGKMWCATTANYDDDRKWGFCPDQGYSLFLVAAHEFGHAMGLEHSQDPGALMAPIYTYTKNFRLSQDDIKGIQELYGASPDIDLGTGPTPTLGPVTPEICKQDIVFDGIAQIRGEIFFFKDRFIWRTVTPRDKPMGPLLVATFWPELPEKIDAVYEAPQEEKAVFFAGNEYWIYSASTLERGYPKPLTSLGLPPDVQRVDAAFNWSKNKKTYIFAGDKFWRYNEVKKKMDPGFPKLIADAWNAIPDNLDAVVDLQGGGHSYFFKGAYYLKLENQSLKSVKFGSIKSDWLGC
Experimental: as §1, §2, §3, §4, §5

[3] = molecular target: metalloelastase (MMP-12) (Homo sapiens, UniProt P39900); assay: MMP-12 enzyme inhibition assay (coumarin-labelled peptide substrate); assay type: biochemical
Chain of metalloelastase (MMP-12) (P39900 106-470): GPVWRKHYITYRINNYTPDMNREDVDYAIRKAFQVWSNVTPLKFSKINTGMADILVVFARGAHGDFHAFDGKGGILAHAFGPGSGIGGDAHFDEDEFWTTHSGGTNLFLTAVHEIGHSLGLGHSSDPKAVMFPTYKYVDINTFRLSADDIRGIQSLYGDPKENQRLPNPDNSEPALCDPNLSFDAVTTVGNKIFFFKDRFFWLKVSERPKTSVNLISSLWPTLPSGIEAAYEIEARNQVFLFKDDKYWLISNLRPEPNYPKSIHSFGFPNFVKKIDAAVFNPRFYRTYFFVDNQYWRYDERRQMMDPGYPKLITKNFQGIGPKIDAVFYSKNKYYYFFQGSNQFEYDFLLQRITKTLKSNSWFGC
Experimental: as §1, §2, §3, §4, §5

[4] = tested on: IL-2-induced peritoneal recruitment of lymphocytes; assay: IL-2-induced peritoneal recruitment of lymphocytes; assay type: in vivo, C3H/HEN mice; conditions: mice, 3 mg/kg p.o., 15 min prior to IL-2; cells collected 24 h after IL-2
Experimental: Administration of IL-2 intraperitoneally causes migration of lymphocytes into the intraperitoneal cavity. This is a model for the cellular migration that occurs during inflammation.
C3H/HEN mice (Elevage Janvier, France) were intraperitoneally injected with IL-2 (20 μg/kg, in saline).
Compounds of the invention were suspended in 0.5% carboxymethylcellulose (CMC)/0.25% tween-20 and were administered by s.c. or p.o. route (10 ml/kg) 15 min prior to administration of IL-2.
Twenty-four hours after administration of IL-2, peritoneal white blood cells were collected by 3 successive lavages of the peritoneal cavity with 5 ml phosphate buffered saline (PBS)-1 mM EDTA (+4° C.). The suspension was centrifuged (1700 g×10 min at +4° C.). The resulting pellet was suspended in 1 ml PBS-1 mM EDTA.
Lymphocytes were identified and counted using a Beckman/Coulter counter.
The animals were divided into 6 groups (6 mice each group):
Inhibition of lymphocyte recruitment was calculated as follows:
Where Ly 1=Number of lymphocytes in group 1 (E3/μl), Ly 2=Number of lymphocytes in group 2 (E3/μl), Ly X=Number of lymphocytes in group X (3-5) (E3/μl).

Row | SMILES | IC50 [1] [nM] | IC50 [2] [nM] | IC50 [3] [nM] | % inhibition of IL-2-induced peritoneal recruitment of lymphocytes [4] [%]
1 | COc1ccc(N2CCN(C(=O)[C@@H](CC(C)C)CN(O)C=O)CC2)cc1 [Example 1, hydroxy((2S)-2-{[4-(4-methoxyphenyl)piperazin-1-yl]carbonyl}-4-methylpentyl)formamide] | > 5000 | 13 | 68 | 35 ± 10
2 | CC(C)C[C@@H](CN(O)C=O)C(=O)N1CCN(c2ccc(-c3ccccc3)cc2)CC1 [Example 2, {(2S)-2-[(4-biphenyl-4-ylpiperazin-1-yl)carbonyl]-4-methylpentyl}hydroxyformamide] | > 5000 | 9 | 8 | 
